Laboratory results published in article PMC5322802 (Biochemistry, 2016).
Like-named read-outs stand apart in the source and are kept apart here.

Experiments:
[1] = target: T1, FABP1 (Mus musculus, UniProt P12710); assay: cis-parinaroyl-CoA displacement from FABP1; type: binding, murine; conditions: for Ki: displacement of FABP1-bound cis-parinaroyl-CoA (footnote a), 24°C, mean ± SEM, n=5, ND = no significant displacement; for fold weaker binding to FABP1 than OEA: cis-parinaroyl-CoA displacement Kis; for fold stronger binding by FABP1 as compared to FABP3, FABP5, and FABP7: different displacement assays
T1 sequence (P12710 1-127): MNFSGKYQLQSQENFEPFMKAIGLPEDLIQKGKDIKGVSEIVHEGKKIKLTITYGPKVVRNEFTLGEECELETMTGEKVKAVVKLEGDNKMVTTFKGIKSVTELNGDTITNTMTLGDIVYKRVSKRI

[2] = target: T1, FABP1; assay: NBD-AEA displacement from FABP1; type: binding, murine; conditions: for displacement of / effect on FABP1-bound NBD-AEA (in words): FABP1 500nM, NBD-AEA 1μM
[3] = target: T1, FABP1; assay: FABP1 binding of fluorescent ligands; design: species or system murine; conditions: read-out: Kd of FABP1 binding NBD-AEA; obtained herein (not shown)
[4] = target: T1, FABP1; assay: DAUDA displacement from FABP1; type: binding, murine; conditions: very high AEA concentration, e.g. 9 μM; not shown
[5] = target: T1, FABP1; assay: Direct binding to FABP1: quenching of intrinsic Tyr fluorescence; design: species or system murine; conditions: FABP1 500nM, AEA 3μM
[6] = target: HSP70; conditions: read-out: Kd of HSP70 binding AEA; cited from earlier work
[7] = target: T2, ACBP (Mus musculus, UniProt P31786); assay: Direct binding to ACBP: intrinsic Tyr/Trp fluorescence; design: species or system murine; conditions: ACBP 500nM
T2 sequence (P31786 1-87): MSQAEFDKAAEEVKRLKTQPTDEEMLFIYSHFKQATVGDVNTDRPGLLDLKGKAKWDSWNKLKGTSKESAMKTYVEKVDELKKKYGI

[8] = target: T1, FABP1; assay: NBD-stearic acid displacement from FABP1; type: binding, murine; conditions: not shown
[9] = target: T1, FABP1; assay: ANS displacement from FABP1; type: binding, murine
[10] = target: T3, SCP2 (Homo sapiens, UniProt P22307); assay: NBD-stearic acid displacement from SCP2; type: binding; conditions: displacement of SCP2-bound NBD-stearic acid; SCP2 500nM, NBD-stearate 500nM
T3 sequence (P22307 21-143 isoform P22307-2 limits assumed): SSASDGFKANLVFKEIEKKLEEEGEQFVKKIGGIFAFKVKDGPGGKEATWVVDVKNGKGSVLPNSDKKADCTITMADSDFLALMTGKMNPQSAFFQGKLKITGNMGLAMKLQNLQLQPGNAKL

[11] = target: T3, SCP2; assay: Direct binding to SCP2: intrinsic Trp fluorescence
[12] = test system: FABP4; conditions: cited from earlier work
[13] = target: FABP1; conditions: known Kd value, cited from earlier work
[14] = in vivo; cited from earlier work
[15] = FABP1 500nM, cis-parinaroyl-CoA 500nM

For `CCCCC/C=C\C/C=C\C/C=C\C/C=C\CCCC(=O)Nc1ccc(O)cc1` [AM404], the “maximal displacement of FABP1-bound cis-parinaroyl-CoA” value [1, 15] was “about 50%”.

In the case of SR-144528, the “displacement of / effect on FABP1-bound NBD-AEA (in words)” value [2] is reported as “increased the fluorescence”.

Compound `O=C(CCC/C=C\C/C=C\C/C=C\C/C=C\CCCCCNc1ccc([N+](=O)[O-])c2nonc12)NCCO` [NBD-AEA] has a Kd [3] of 700 ± 100 nM.

For `CCCCC/C=C\C/C=C\C/C=C\C/C=C\CCCC(=O)NCCO` [AEA, n-6 arachidonoylethanolamide], the “displacement of FABP1-bound DAUDA” value [4] is listed as 13%, the “effect on FABP1 intrinsic Tyr fluorescence emission at 304 nm (in words)” value [5] is listed as “decreased” and the Kd [6] is listed as 3700 ± 500 nM. For the same compound, the “quenching of ACBP aromatic amino acid (Tyr) fluorescence emission (in words)” value (from here on “quenching of ACBP aromatic amino acid”) [7] was “neither OEA nor AEA quenched”, the “displacement of FABP1-bound NBD-stearic acid (in words)” value [8] was “did not displace” and the “displacement of FABP1-bound ANS (in words)” value [9] was “did not displace”. The “maximal displacement of FABP1-bound cis-parinaroyl-CoA” value [1, 15] was “about 50%”.

For `CCCCCCCC/C=C\CCCCCCCC(=O)SCCNC(=O)CCNC(=O)[C@H](O)C(C)(C)COP(=O)(O)OP(=O)(O)OC[C@H]1O[C@@H](n2cnc3c(N)ncnc32)[C@H](O)[C@@H]1OP(=O)(O)O` [oleoyl-CoA], the “quenching of ACBP aromatic amino acid” value [7] was “significantly quenched”.

In the case of `CCCC(C)(C)c1ccc2c(c1)OC(C)(C)[C@@H]1CC=C(C)C[C@@H]21` [JWH-133], the Ki ([2]; displacement of FABP1-bound NBD-AEA (footnote b), 24°C, mean ± SEM, n=5, ND = no significant displacement) is reported as “did not displace” and the Ki [1] is reported as “did not displace”.

For `CCCCC/C=C\C/C=C\C/C=C\C/C=C\CCCC(=O)Nc1ccc(O)cc1C` [VDM11], the “maximal displacement of FABP1-bound cis-parinaroyl-CoA” value [1, 15] was “about 50%”.

In the case of `CC/C=C\C/C=C\C/C=C\C/C=C\C/C=C\CCCC(=O)NCCO` [EPEA, n-3 eicosapentaenoylethanolamide], the “fold weaker binding to FABP1 than OEA” value [1] is reported as 4–10 fold and the Ki [1] is reported as 390 ± 30 nM.

For `CCCCC/C=C\C/C=C\C/C=C\C/C=C\CCCC(=O)OC(CO)CO` [2-AG, 2-arachidonoylglycerol], the “fold stronger binding by FABP1 as compared to SCP2” value [1] was ≥ 3 fold, the “maximal displacement of FABP1-bound cis-parinaroyl-CoA” value [1, 15] was “about 50%” and the “fold stronger binding by FABP1 as compared to FABP3, FABP5, and FABP7” value [1] was 2–15 fold.

For `CC(=O)Nc1ccc(Nc2nc(-c3ccc(Cl)c(Cl)c3)cs2)cc1` [SCPI1], the Ki [10] was 680 ± 60 nM.

For `CCCCCCCC/C=C\CCCCCCCC(=O)NCCO` [OEA, oleoylethanolamide], the “quenching of ACBP aromatic amino acid” value [7] was “neither OEA nor AEA quenched”, the Kd [11] was 390 nM and the “effect on SCP2 Trp fluorescence emission (in words)” value ([11]; SCP2 500nM, OEA 1.4 μM) was “significantly increased”.

For `C=C(C)[C@@H]1CCC(C)=C[C@H]1c1c(O)cc(CCCCC)cc1O` [Cannabidiol, cannabidiol], the “maximal displacement of FABP1-bound cis-parinaroyl-CoA” value [1, 15] was “about 50%” and the “fold stronger binding by FABP1 as compared to FABP3, FABP5, and FABP7” value [1] was 9–11 fold.

In the case of `CCc1c(-c2ccccc2)c(-c2ccccc2)nn1-c1ccccc1-c1cccc(OCC(=O)O)c1` [BMS309403], the “affinity of FABP4 for BMS309403” value [12] is listed as < 2 nM, the Ki [10] is listed as 5500 ± 500 nM and the “fold stronger binding by FABP1 than FABP3” value ([1]; BMS309403) is listed as 10 fold. For the same compound, the “fold stronger binding by FABP1 than FABP5” value ([1]; BMS309403) was 12–50 fold and the “maximal displacement of FABP1-bound cis-parinaroyl-CoA (in words)” value [1, 15] was “almost completely”.

For `CCCCCc1cc(O)c2c(c1)OC(C)(C)[C@@H]1CCC(C)=C[C@@H]21` [THC, Δ^9-tetrahydrocannabinol], the “displacement of / effect on FABP1-bound NBD-AEA (in words)” value [2] was “essentially all” and the “maximal displacement of FABP1-bound cis-parinaroyl-CoA” value [1, 15] was “about 50%”.

For `CC/C=C/C=C\C=C/C=C/CCCCCCCC(=O)SCCNC(=O)CCNC(=O)[C@H](O)C(C)(C)COP(=O)(O)OP(=O)(O)OC[C@H]1O[C@@H](n2cnc3c(N)ncnc32)[C@H](O)[C@@H]1OP(=O)(O)O` (relative stereo) [cis-parinaroyl-CoA], the Kd ([13]; read-out: Kd1 of FABP1 binding cis-parinaroyl-CoA) is given as 27 ± 4 nM and the Kd ([13]; read-out: Kd2 of FABP1 binding cis-parinaroyl-CoA) is given as 66 ± 8 nM.

For `CCCCC/C=C\C/C=C\C/C=C\C/C=C\CCCC(=O)O` [ARA, arachidonic acid], the “first-pass clearance by liver” value [14] is given as ~50%.

With `CC/C=C\C/C=C\C/C=C\C/C=C\C/C=C\C/C=C\CCC(=O)NCCO` [DHEA, n-3 docosahexaenoylethanolamide] the “fold weaker binding to FABP1 than OEA” value [1] was 4–10 fold.
